From patent publication US20220380376A1, “Nitrogen Oxide-Donating PDE-5 and/or PDE-6 Inhibitor Compounds” (ILDONG PHARMACEUTICAL CO., LTD., priority 2019, published 2022)

Key:
[1] = Plasma protein binding assay (equilibrium dialysis); type: in vitro ADME; settings: human plasma, 2 μM, dialysis 4 hours at 37° C.
Experimental: The dialysis device used in this example is a 96-well equilibrium dialysis plate (Cat #1006, HT Dialysis LLC, Gales Gerry, CT), and HTD 96 a/b dialysis membrane strips (Cat #1101, MWCO 12-14 kDa, HT Dialysis LLC). The dialysis device was assembled following the manufacturer's instructions.
The dialysis membrane strips were soaked in ultra-pure water at room temperature for approximately 1 hour. Each membrane strip containing 2 membranes was separated and soaked in 20:80 ethanol/water (v/v) for approximately 20 minutes, after which they were ready for used or were stored in the solution at 2-8° C. for up to a month. Prior to experiment, the membrane was rinsed and soaked for 20 minutes in ultra-pure water.
On the day of the experiment, the plasma was thawed by running under col tap water and centrifuged at 3220 rpm for 5 minutes to remove any clos. The pH value of the resulting plasma was checked. Only plasma with pH value with 7.0-8.0 could be used.
Both test and control compounds were dissolved in DMSO to achieve 10 mM stock solutions. Working solutions (400 μM) if test and control compounds were prepared by diluting 10μ p of stock solutions with 240 μL of DMSO. Loading matrix solutions (2 μM) of both test and control compounds were prepared by diluting 5 μL of working solutions with 995 μL of blank matrix.
To prepare the loading matrix containing the test compound or control compounds, aliquots of either test compound working solutions or control compound working solution were spiked into blank matrix to achieve final test concentrations. The concentration of organic solvent in the final solutions were no more than 1% (normally 0.5%). The samples were mixture thoroughly before being used.
To prepare the time zero (TO) samples to be used for recovery determinations. 50 μL aliquots of loading matrix solution were transferred in triplicate to the sample collection plate. The samples were immediately matched with opposite blank buffer to obtain a final volume of 100 μL of 1:1 matrix/dialysis buffer (v/v) in each well. 500 μL of stop solution were added to these TO samples. They were then stored at 2-8° C. pending further processes along with other post-dialysis samples.
To load the dialysis device, an aliquot of 150 μL of the loading matrix was transferred to the donor side of each dialysis well in triplicate, and 150 μL of the dialysis buffer was loaded to the received side of the well. The dialysis was placed in humidified incubator at 37° C. with 5% CO2 on a shaking platform that rated slowly (about 100 rpm) for 4 hours.
At the end of the dialysis, aliquots of 50 μL of samples were taken from both the buffer side and the matrix side of the dialysis deice. These samples were transferred into new 96-well plates (the sample collection plates). […]

human PDE-5A1 = human PDE-5A1 (Homo sapiens, UniProt O76074); test: Human PDE-5A1 inhibition assay (fluorescence polarization); type: biochemical; settings: human PDE5A1, 100 nM FAM-cGMP, 60 minutes at room temperature
human PDE-6C = human PDE-6C (Homo sapiens, UniProt P51160); test: Human PDE-6C inhibition assay (fluorescence polarization); type: biochemical; settings: human PDE6C, 100 nM FAM-cGMP, 60 minutes at room temperature
[2] = tested on: ocular normotensive rabbits; test: In vivo intraocular pressure (IOP) lowering effect in rabbits; design: species or system New Zealand white rabbits; settings: 50 μL per eye once, right eye vs vehicle in left eye, 1-10 hours post dose
Text: This example illustrates the procedures and results of the intraocular pressure (IOP) lowering effect of compound 18 as compared to Latanoprostene bunod and latanoprost at different concentrations in ocular normotensive rabbits.
Forty (40) male New Zealand white rabbits were divided into 4 groups with 10 animals per group. Animals were then randomly assigned to groups based on body weight.
Latanoprostene bunod ophthalmic solution (LBN, 0.024%) and latanoprost eye drops (0.005%) were used as positive controls and dosed with the same volumes into the right eyes of the tested animals in groups 1 and 2 once.
Compound 18 was instilled into the right eyes of the tested animals in groups 3 (10 mg/mL) and 4 (20 mg/mL) at 50 μL per eye once.
All left eyes of the tested animals in each group were dosed with vehicle solution at 50 μL per eye.
The intraocular pressures (IOPs) were measured once at pre-dose and then once at 1, 2, 4, 6, 8, and 10 hours post dose for each group of animals. FIGS. 1 to 4 show the results from the IOP lowering studies for all four tested groups.

Chain of human PDE-6C (P51160 whole entry): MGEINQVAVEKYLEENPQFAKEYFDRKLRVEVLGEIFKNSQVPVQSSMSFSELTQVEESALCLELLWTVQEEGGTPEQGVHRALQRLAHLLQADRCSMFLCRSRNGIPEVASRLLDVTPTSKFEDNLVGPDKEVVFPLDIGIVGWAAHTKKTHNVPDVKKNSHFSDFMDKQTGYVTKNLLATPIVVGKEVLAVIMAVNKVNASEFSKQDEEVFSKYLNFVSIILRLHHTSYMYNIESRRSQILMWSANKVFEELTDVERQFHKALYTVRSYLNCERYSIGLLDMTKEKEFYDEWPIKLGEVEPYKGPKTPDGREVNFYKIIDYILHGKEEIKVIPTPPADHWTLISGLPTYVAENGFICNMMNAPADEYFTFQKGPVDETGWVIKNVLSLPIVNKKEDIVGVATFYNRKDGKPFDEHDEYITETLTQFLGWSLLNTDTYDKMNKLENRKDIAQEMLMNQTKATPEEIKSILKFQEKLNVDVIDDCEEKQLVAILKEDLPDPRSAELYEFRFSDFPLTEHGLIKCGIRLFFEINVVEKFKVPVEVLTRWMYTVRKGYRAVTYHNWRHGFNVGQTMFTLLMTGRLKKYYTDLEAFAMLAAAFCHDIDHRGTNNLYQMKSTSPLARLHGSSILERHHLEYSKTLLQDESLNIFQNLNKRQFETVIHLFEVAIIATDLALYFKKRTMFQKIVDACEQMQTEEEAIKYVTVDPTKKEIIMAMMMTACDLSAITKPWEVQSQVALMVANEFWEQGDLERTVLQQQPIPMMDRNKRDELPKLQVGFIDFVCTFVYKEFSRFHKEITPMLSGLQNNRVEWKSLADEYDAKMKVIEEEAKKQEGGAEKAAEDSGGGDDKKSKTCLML

| % Bound [1] [%] | IC50 (human PDE-5A1) [µM] | IC50 (human PDE-6C) [µM] | Compound | IOP lowering effect ([2]; 10 mg/mL) | IOP lowering effect ([2]; 20 mg/mL) |
| --- | --- | --- | --- | --- | --- |
| 97.53 |  |  | CCCc1nn(C)c2c(=O)[nH]c(-c3cc(S(=O)(=O)N4CC(NCCCO[N+](=O)[O-])C4)ccc3OCC)nc12 [Compound 22, 3-((1-((4-ethoxy-3-(1-methyl-7-oxo-3-propyl-6,7-dihydro-1H-pyrazolo[4,3-d]pyrimidin-5-yl)phenyl)sulfonyl)azetidin-3-yl)amino)propyl nitrate] |  |  |
| 86.19 | < 0.01 | < 0.01 | CCCc1nn(C)c2c(=O)[nH]c(-c3cc(S(=O)(=O)N4CC(NCCCO)C4)ccc3OCC)nc12 [Compound 10, 5-(2-ethoxy-5-((3-((3-hydroxypropyl)amino)azetidin-1-yl)sulfonyl)phenyl)-1-methyl-3-propyl-1,6-dihydro-7H-pyrazolo[4,3-d]pyrimidin-7-one] |  |  |

The remaining lines, values behind:

| Compound | % Bound [1] [%] | IC50 (human PDE-5A1) [µM] | IC50 (human PDE-6C) [µM] | IOP lowering effect ([2]; 10 mg/mL) | IOP lowering effect ([2]; 20 mg/mL) |
| --- | --- | --- | --- | --- | --- |
| CCCc1nn(C)c2c(=O)[nH]c(-c3cc(S(=O)(=O)N4CC(CCCO)C4)ccc3OCC)nc12 [Compound 4, 5-(2-ethoxy-5-((3-(3-hydroxypropyl)azetidin-1-yl)sulfonyl)phenyl)-1-methyl-3-propyl-1,6-dihydro-7H-pyrazolo[4,3-d]pyrimidin-7-one] | 96.01 |  |  |  |  |
| CCCc1nn(C)c2c(=O)[nH]c(-c3cc(S(=O)(=O)N4CC(CCCO[N+](=O)[O-])C4)ccc3OCC)nc12 [Compound 18, 3-(1-((4-ethoxy-3-(1-methyl-7-oxo-3-propyl-6,7-dihydro-1H-pyrazolo[4,3-d]pyrimidin-5-yl)phenyl)sulfonyl)azetidin-3-yl)propyl nitrate] | 99.52 | < 0.01 | < 0.01 | significantly lower the IOP | significantly lower the IOP |
| CCCc1nn(C)c2c(=O)[nH]c(-c3cc(S(=O)(=O)N4CC(CCO[N+](=O)[O-])C4)ccc3OCC)nc12 [Compound 17, 2-(1-((4-ethoxy-3-(1-methyl-7-oxo-3-propyl-6,7-dihydro-1H-pyrazolo [4,3-d]pyrimidin-5-yl)phenyl)sulfonyl)azetidin-3-yl)ethyl nitrate] |  | < 0.01 | < 0.01 |  |  |
